Measurements published in patent US20240316008A1, “TREATMENT OF SYSTEMIC IMMUNE ACTIVATION SYNDROMES” (TRANQUIS THERAPEUTICS, INC., priority 2020, published 2024).

Experiments:
[1] = system: 12 human primary cell-based systems; experiment: Eurofins BioMAP Diversity PLUS panel
TNFα = TNFα secretion from LPS-stimulated BV2 cells (CBA assay); assay type: cell-based, murine; conditions: 100 ng/ml LPS, 24 hours; for TNFα production by LPS-stimulated BV-2 myeloid cells: compared to control
Experimental: LPS was used to induce cytokine secretion from BV-2 cells. Cells were incubated with TQS-168 at various concentrations to assess whether TQS-168 could suppress the LPS-promoted release of various cytokines from in vitro cell cultures. Cytokine secretion was measured by cytometric bead array (CBA) fluorescence-activated cell sorting (FACS).
Briefly, a vial of BV2 frozen stock (1 million cells per ml in complete medium) was thawed into 10 mL of complete medium per vial for a total of 4 vials. The vials were then centrifuged at 1800 rpm for 3 minutes to wash away freezing media. The four vials were then pooled into 25 mL of complete medium. TQS-168 was prepared in DMSO.
Cells were incubated for 24 hours in the presence of medium (negative control), LPS (positive control), DMSO+LPS (positive control, controlling additionally for presence of DMSO in the TQS-168 stock solution), or LPS+TQS-168 at final concentrations of 1 μM, 5 μM, 10 μM, and 20 μM.
After the well plates were incubated overnight for 24 hours, they were centrifuged at 1800 rpm for 5 minutes. Next, 150 μl from each well was transferred to a new set of plates, of which 50 μl was used for CBA. The plates were then centrifuged with the cells, followed by addition of 100 μl of DAPI (50 ml of PBS+10 μl of DAPI stock at 1:5000 dilution). The plates were then incubated in the dark for 5 minutes, followed by addition of 100 μl of PBS and centrifuged at 1800 rpm for 5 minutes. Finally, the plates were resuspended in 200 μl of PBS and tested.
Multiplexed cytometric bead array (CBA) assay was performed according to standard techniques to detect presence in the cell culture medium of secreted murine TNFα, IL-6, IFNγ, IL-12, monocyte chemoattractant protein 1 (MCP-1), and IL-10.
A total of 4-11 replicates of BV2 cultures in different conditions were investigated. Frozen BV2 microglia cell line was thawed and propagated in complete media (RPMI, 10% heat inactivated FBS, 1% L-glutamine, 1% Pen-Strep) until growth rate reached log phase.
Cells were stimulated with 100 ng/ml of LPS for 24 hours. […]

[2] = BioMAP report, profile at 6.7 μM, 2.2 μM, 740 nM
[3] = profile at 6.7 μM, 2.2 μM, 740 nM
[4] = profile at 20 μM, 6.7 μM, 2.2 μM, 740 nM

CC(C)(C)c1ccc(-c2nc3ccccc3[nH]2)cc1 [TQS-168, 2-(4-tert-butylphenyl)-1H-benzimidazole]
decrease in sIgG, sIL-17F, sTNFα from B and T cells ([1]; 6.7 μM): greatest decrease | cytotoxicity to endothelial cells ([1]; 20 μM): cytotoxic | highest nontoxic concentration tested ([1]; BioMAP Diversity PLUS panel): 6.7 µM | tissue remodeling activity MMP-1 [1, 2]: increased | tissue remodeling activity αSMA [1, 2]: decreased | activity at non-cytotoxic concentrations [1, 3]: active | immune markers sIgG, sIL-17-F, sTNFα (from B and T cells, not monocytes) [1, 3]: decreased | inflammatory markers sPGE2 (from monocytes), IL-8 [1, 3]: decreased | proliferation of endothelial cells, T cells, B cells & fibroblasts [1, 3]: anti-proliferative | sIL-6 [1, 3]: increased | tissue remodeling markers MMP1, alpha-SMA [1, 3]: modulated | VCAM-1 [1, 4]: increased | immune markers sIgG, sIL-17A, sIL-17F, sIL-2, sTNFα, sIL-6 (from B and T cells, not monocytes) [1, 4]: decreased | TNFα production by LPS-stimulated BV-2 myeloid cells (TNFα; 5 μM): suppress | TNFα production by LPS-stimulated BV-2 myeloid cells (TNFα; 20 μM): suppress | LPS-induced secretion of TNFα (TNFα; BV2 cells, 1 μM-20 μM): reduce
